# Assay results taken from ChEMBL document CHEMBL1201862, “PubChem BioAssay data set” (2004).
#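 Where inhibition never reached the appropriate level, the endpoint shown equals the highest concentration tested. Otherwise, values were interpolated linearly from a five-concentration, 48-hour dose response in 96-well plates. At the GI50, growth is halved.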 Active and inactive are the calls of the source. Cut-off read from the data, not from the text of the source: active = GI50 up to about 1.1 µM and inactive = higher.
# Key:
# Test in all cases: DTP human tumour cell line panel, 48 h
# XF498 = system: XF498
# HOP-18 = system: HOP-18
# DLD-1 = system: DLD-1
# KM-20L2 = system: KM-20L2
# DMS-114 = system: DMS-114
# DMS-273 = system: DMS-273
# RXF 631 = system: RXF 631
# LXFL 529 = system: LXFL 529
# BT-549 = system: BT-549
SMILES,GI50 (XF498),GI50 (HOP-18),GI50 (DLD-1),GI50 (KM-20L2),GI50 (DMS-114),GI50 (DMS-273),GI50 (RXF 631),GI50 (LXFL 529),GI50 (BT-549)
CC(=O)NC1=C(C)C(=O)c2c(nc3n2CCC3O)C1=N (configuration not stated),3.81 µM (inactive),17.6 µM (inactive),11.6 µM (inactive),19.5 µM (inactive),3.4 µM (inactive),17.8 µM (inactive),–,–,–
CN(C)CCNC(=O)c1cccc2nc3ccc4cccnc4c3nc12,–,1.78 µM (inactive),0.24 µM (active),–,0.533 µM (active),0.118 µM (active),0.132 µM (active),–,–
CN(C)CCNC(=O)c1cccc2nc3c4ccccc4c4ccccc4c3nc12,2.47 µM (inactive),8.71 µM (inactive),1.56 µM (inactive),3.8 µM (inactive),–,2.81 µM (inactive),2.33 µM (inactive),2.19 µM (inactive),2.65 µM (inactive)
CCC/C=C1\CCC(CN(C)C)C1=O (configuration not stated),5.57 µM (inactive),23.4 µM (inactive),2.38 µM (inactive),10.3 µM (inactive),15.6 µM (inactive),11.9 µM (inactive),–,1.82 µM (inactive),–
O=C(CCCCCCCCCCc1ccccc1)C1=C(O)CC(O)CC1=O (configuration not stated),> 100 µM (inactive),> 100 µM (inactive),80.4 µM (inactive),55 µM (inactive),35.5 µM (inactive),48 µM (inactive),56.8 µM (inactive),53.3 µM (inactive),–
COC(=O)/C(=N/NC(N)=O)C(C(=O)OC)C(=O)C(=O)Nc1ccc(Cl)cc1 (configuration not stated),> 100 µM (inactive),> 100 µM (inactive),> 100 µM (inactive),> 100 µM (inactive),> 71.8 µM (inactive),> 100 µM (inactive),–,> 100 µM (inactive),–
CC(=O)NC(CCCCN(Cc1ccccc1)C(=O)NCCCl)C(=O)NCc1ccccc1 (configuration not stated),–,29.1 µM (inactive),> 100 µM (inactive),> 100 µM (inactive),> 100 µM (inactive),> 100 µM (inactive),> 100 µM (inactive),> 100 µM (inactive),–
CN[C@@H](C)[C@H](N)c1ccccc1,–,> 100 µM (inactive),> 100 µM (inactive),–,–,> 100 µM (inactive),> 100 µM (inactive),> 100 µM (inactive),–
Nc1ncnc2c1ncn2C1CC(OC2CCCCO2)C(CO)O1 (configuration not stated),> 100 µM (inactive),> 100 µM (inactive),> 100 µM (inactive),> 100 µM (inactive),> 100 µM (inactive),> 100 µM (inactive),–,> 100 µM (inactive),–
CCOC(=O)C1=C(Nc2ccccc2)SCC1=O,–,–,> 100 µM (inactive),> 100 µM (inactive),–,> 100 µM (inactive),> 100 µM (inactive),> 100 µM (inactive),–
O=C(Nc1cccc(Cl)c1)C(=O)C(C(=O)c1ccc2ccccc2c1)C1OC(=O)c2ccccc21 (configuration not stated),–,12.1 µM (inactive),16.3 µM (inactive),33.7 µM (inactive),11.5 µM (inactive),24.7 µM (inactive),16.9 µM (inactive),7.48 µM (inactive),–
CCN(CC)C(=O)Cc1[nH][nH]c(=O)c1C(=O)N(CC)CC,> 100 µM (inactive),> 100 µM (inactive),> 100 µM (inactive),> 100 µM (inactive),> 100 µM (inactive),> 100 µM (inactive),–,> 100 µM (inactive),–
CCOc1cccc2c1N[S@@](=O)S2,78.7 µM (inactive),–,> 100 µM (inactive),> 100 µM (inactive),–,> 100 µM (inactive),> 100 µM (inactive),58.7 µM (inactive),–
COC1=C2C[C@@H](C)C[C@@H](OC)[C@@H](O)[C@H](C)/C=C(\C)[C@@H](OC(N)=O)[C@H](OC)/C=C\C=C(/C)C(=O)NC(=CC1=O)C2=O,0.0787 µM (active),0.159 µM (active),0.0679 µM (active),0.0266 µM (active),–,0.117 µM (active),0.71 µM (active),0.0267 µM (active),–
C/C=C1/C(=O)O[C@]23C=C[C@@H]4C(C(=O)OC)=CO[C@H](O[C@@H]12)[C@@H]43 [PLUMERICIN],1.38 µM (inactive),4.67 µM (inactive),0.432 µM (active),2.17 µM (inactive),1.12 µM (inactive),2.32 µM (inactive),–,–,–
O=C1Nc2cc([N+](=O)[O-])c(Br)cc2C1=O,12.1 µM (inactive),–,22.2 µM (inactive),15.3 µM (inactive),17.5 µM (inactive),20.1 µM (inactive),18.5 µM (inactive),–,–
O=c1[nH]c(=O)n(C2OC3COC2C3O)cc1F (configuration not stated),> 100 µM (inactive),> 100 µM (inactive),> 100 µM (inactive),> 100 µM (inactive),–,> 100 µM (inactive),> 100 µM (inactive),> 100 µM (inactive),–
CSc1nc2c(ncn2C2OCC(O)C(O)C2O)c(=O)[nH]1 (configuration not stated),> 100 µM (inactive),> 100 µM (inactive),> 100 µM (inactive),> 100 µM (inactive),> 100 µM (inactive),> 100 µM (inactive),–,–,–
